60 molecules from PubChem BioAssay AID505 (SGCOxCompounds, 2006) can be followed below.

The target of this test is Serine/threonine-protein kinase pim-2 (Homo sapiens) (UniProt Q9P1W9). Kind of test: compound-induced PIM2 thermal stabilization – biophysical, human, melting temperature shift (AID 505). To be noted: Recombinant PIM2 thermal shift, Tm change, at 10 µM, buffer 10 mM HEPES, pH 7.5, with 50 µM L-Arg/L-Glu (1:1), hits give high values.

The structures appear in SMILES notation. Where “and” joins values, the source holds several entries; their conditions need not be identical. Identical values can stand only once.

Serine/threonine-protein kinase pim-2 (Homo sapiens), sequence (Q9P1W9 whole entry, looked up): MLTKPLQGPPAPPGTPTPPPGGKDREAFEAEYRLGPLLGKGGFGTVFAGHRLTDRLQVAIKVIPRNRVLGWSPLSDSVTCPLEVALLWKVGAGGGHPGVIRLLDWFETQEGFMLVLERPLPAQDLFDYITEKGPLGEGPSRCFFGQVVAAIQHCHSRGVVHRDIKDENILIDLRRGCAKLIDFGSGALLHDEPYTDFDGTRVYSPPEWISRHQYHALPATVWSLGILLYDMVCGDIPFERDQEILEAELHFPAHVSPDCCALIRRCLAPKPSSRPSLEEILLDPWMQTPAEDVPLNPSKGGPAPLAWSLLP

As for `NC1=N/C(=C2/CCNC(=O)c3[nH]c(Br)cc32)C(=O)N1`, the Tm shift by setting is: (NaCl 100 mM) 3.73 Celsius; (NaCl 150 mM) 3.7 Celsius.

Take `O=c1c(O)c(-c2ccc(O)cc2)oc2cc(O)cc(O)c12`: the Tm shift (NaCl 150 mM) is 5.81 Celsius.

For `COc1c(C=O)c(O)cc2c1C(=O)c1ccccc1C2=O`, the Tm shift (NaCl 150 mM) is 3.3 Celsius.

Take `NCCNc1ncc(C(N)=O)c(Nc2cccc(C(F)(F)F)c2)n1`: the Tm shift (NaCl 150 mM) was 5.8 Celsius.

Take `COc1cc(/C=C/C(=O)CC(=O)/C=C/c2ccc(O)c(OC)c2)ccc1O`: under “NaCl 150 mM”, the Tm shift was 4.3 Celsius.

For the molecule `CC(O)(O)C1(O)C[C@@H]2O[C@@]1(C)n1c3ccccc3c3c4c(c5c6ccccc6n2c5c31)C(=O)NC4` (some centres not stated), the Tm shift (NaCl 150 mM) is 3.79 Celsius.

As to `Fc1cccc(-c2cnc3ccc(NC4CCOCC4)nn23)c1`, the Tm shift (NaCl 150 mM) is 3.17 Celsius.

On to `FC(F)(F)Oc1cccc(-c2cnc3ccc(NC4CCOCC4)nn23)c1`, for which the Tm shift (NaCl 150 mM) was 5.78 Celsius.

Turning to `CCC(CO)Nc1ccc2ncc(-c3cccc(OC(F)(F)F)c3)n2n1` (configuration not stated), the Tm shift (NaCl 150 mM) was 5.92 Celsius.

Consider `O=C1C(=O)C(c2cccc(O)c2)Oc2ccccc21` (configuration not stated), for which the Tm shift (NaCl 150 mM) is 4.5 Celsius.

Turning to `O=C1c2ccccc2-c2n[nH]c3cccc1c23`, the Tm shift (NaCl 150 mM) was 4.6 Celsius.

For the molecule `O=c1oc2cc(O)ccc2c2oc3cc(O)ccc3c12`, the Tm shift (NaCl 150 mM) was 4.4 Celsius.

Turning to `Cc1c2ccncc2c(C)c2c1[nH]c1ccccc12`, where the note is “NaCl 150 mM”, the Tm shift is 4.8 Celsius.

Take `COC(=O)c1cnc2oc3ccc(O)cc3c2c1-c1ccccc1`: the Tm shift (NaCl 150 mM) was 6.25 Celsius.

As for `CC(C)[C@@H](CO)Nc1ccc2ncc(-c3cccc(C(F)(F)F)c3)n2n1`, the Tm shift (NaCl 150 mM) is 4.39 Celsius.

For the molecule `O=c1c(O)c(-c2cc(O)c(O)c(O)c2)oc2cc(O)cc(O)c12`, the Tm shift (NaCl 100 mM) is 4.74 Celsius.

With `NCCCn1cc(C2=C(c3c[nH]c4ccccc34)C(=O)NC2=O)c2ccccc21`, where the note is “NaCl 150 mM”, the Tm shift is 5.63 Celsius.

For the molecule `COc1cc(C2Oc3cc(O)cc(O)c3C(=O)C2=O)ccc1O` (configuration not stated), the Tm shift (NaCl 150 mM) was 7.24 Celsius.

As for `Fc1ccc(CNc2ccc3ncc(-c4ccco4)n3n2)cc1`, the Tm shift (NaCl 100 mM) is 3.36 Celsius.

Regarding `CC(=O)c1cccc(-c2cnc3ccc(NCC4CC4)nn23)c1`, the Tm shift (NaCl 100 mM) is 4.29 Celsius.

On to `Brc1c(Br)c(Br)c2n[nH]nc2c1Br`, for which the Tm shift (NaCl 150 mM) is 4.25 Celsius.

Consider `O=C1C(=O)C(c2ccc(O)cc2)Oc2cc(O)cc(O)c21` (configuration not stated), for which the Tm shift (NaCl 150 mM) was 5.62 Celsius.

Take `N#C/C(=C1\Nc2ccccc2S1)c1ccnc(NCCc2cccnc2)n1`: the Tm shift (NaCl 150 mM) was 7.4 Celsius.

Take `CCC(CO)Nc1ccc2ncc(-c3cccc(C(C)=O)c3)n2n1` (configuration not stated): the Tm shift (NaCl 150 mM) is 4.59 Celsius.

In the case of `O=C1C(=O)C(c2ccccc2)Oc2ccc(O)cc21` (configuration not stated), under “NaCl 150 mM”, the Tm shift was 3.1 Celsius.

As for `O=Nc1c(-c2c(O)[nH]c3ccc(S(O)(O)O)cc23)[nH]c2ccccc12`, the Tm shift (NaCl 150 mM) was 4.1 Celsius.

Consider `CCN1/C(=C/C(C)=O)Sc2ccc(OC)cc21`, for which the Tm shift (NaCl 150 mM) was 3.1 Celsius.

In the case of `N=C(N)SCCCn1cc(C2=C(c3c[nH]c4ccccc34)C(=O)NC2=O)c2ccccc21`, the Tm shift (NaCl 150 mM) was 5.64 Celsius.

`Oc1cc(O)c2c(c1)O[C@H](c1ccc(O)c(O)c1)[C@@H](O)C2`: where the note is “NaCl 150 mM”, the Tm shift was 3.2 Celsius.

With `O=C1NCc2c1c1c3ccccc3[nH]c1c1[nH]c3ccccc3c21`, the Tm shift (NaCl 150 mM) was 5.2 Celsius.

Take `O=c1[nH]c(O)c2c1c1c3ccccc3nc1n1cncc21`: the Tm shift (NaCl 150 mM) is 8 Celsius.

Consider `O=C1NC(=O)c2c1c1c3ccccc3[nH]c1c1[nH]c3cc(Br)ccc3c21`, for which the Tm shift (NaCl 100 mM) was 6.31 Celsius.

`O=c1c(O)c(-c2ccc(O)c(O)c2)oc2cc(O)ccc12`: the Tm shift (NaCl 150 mM) is 6.11 Celsius.

`O=c1c(-c2ccc(O)cc2)coc2cc(O)cc(O)c12`: for the setting “NaCl 150 mM”, the Tm shift is 3.3 Celsius.

With `Clc1cccc(-c2cnc3ccc(NCCc4ccccn4)nn23)c1`, where the note is “NaCl 100 mM”, the Tm shift is 3.46 Celsius.

As to `O=C1NC(=O)C(c2c[nH]c3ccccc23)=C1c1c[nH]c2ccccc12`, the Tm shift (NaCl 150 mM) is 4.02 Celsius.

For the molecule `O=c1c(O)c(-c2ccc(O)c(O)c2)oc2cc(O)cc(O)c12`, for the setting “NaCl 150 mM”, the Tm shift is 8.58 Celsius and 7.16 Celsius.

In the case of `Cn1cc(C2=C(c3c4n(c5ccccc35)CCC(CN)C4)C(=O)NC2=O)c2ccccc21` (configuration not stated), the Tm shift (NaCl 150 mM) was 3.6 Celsius.

As for `CCC(CO)Nc1ccc2ncc(-c3ccc(O)cc3)n2n1` (configuration not stated), the Tm shift (NaCl 150 mM) is 4.74 Celsius.

As for `CCn1cnc2c(Nc3cccc(Cl)c3)nc(N[C@@H]3CCCC[C@@H]3N)nc21`, under “NaCl 150 mM”, the Tm shift is 5.45 Celsius.

Take `CC(C)(C)c1nc2c3cc[nH]c(=O)c3c3cc(F)ccc3c2[nH]1`: the Tm shift (NaCl 150 mM) was 5.1 Celsius.

On to `O=C1C(=O)C(c2ccc(O)cc2O)Oc2cc(O)cc(O)c21` (configuration not stated), for which the Tm shift (NaCl 150 mM) is 6.2 Celsius.

For the molecule `CN(C)CCCn1cc(C2=C(c3c[nH]c4ccccc34)C(=O)NC2=O)c2ccccc21`, the Tm shift runs as follows: (NaCl 100 mM) 4.21 Celsius; (NaCl 150 mM) 6.1 Celsius.

For the molecule `O=C1C(=O)C(c2cc(O)c(O)c(O)c2)Oc2cc(O)cc(O)c21` (configuration not stated), the Tm shift (NaCl 100 mM) is 4.13 Celsius.

As for `CCC(CO)Nc1ccc2ncc(-c3ccc(F)c(Cl)c3)n2n1` (configuration not stated), the Tm shift (NaCl 150 mM) was 5.54 Celsius.

With `O=C1NC(=O)c2c1c1c3ccccc3n3c1c1c2c2ccccc2n1[C@@H]1CCC3O1`, for the setting “NaCl 100 mM”, the Tm shift was 11.1 Celsius.

As for `O=c1c(-c2ccc(O)cc2)coc2cc(O)ccc12`, the Tm shift (NaCl 150 mM) is 3.3 Celsius.

Consider `CC1N=C2SC=CN2C(=O)C1CCN1CCC(=C(c2ccccc2)c2ccc(F)cc2)CC1` (configuration not stated), for which the Tm shift (NaCl 150 mM) was 4.3 Celsius and 3.8 Celsius.

For the molecule `Cc1cc(O)c2c(c1)C(=O)c1cc(O)cc(O)c1C2=O`, the Tm shift (NaCl 150 mM) is 4.2 Celsius.

Consider `O=c1cc(-c2ccc(O)c(O)c2)oc2cc(O)cc(O)c12`, for which the Tm shift (NaCl 150 mM) is 4.14 Celsius.

`CC(C)[C@@H](CO)Nc1ccc2ncc(-c3cccc(OC(F)(F)F)c3)n2n1`: for the setting “NaCl 150 mM”, the Tm shift is 4.06 Celsius.

Consider `O=C1Nc2ccccc2/C1=C\c1c(Cl)[nH]c2ccccc12`, for which the Tm shift (NaCl 150 mM) is 3.4 Celsius.

As for `Clc1cccc(-c2cnc3ccc(NC4CCOCC4)nn23)c1`, the Tm shift (NaCl 100 mM) was 5.64 Celsius.

For the molecule `O=C1Nc2ccc(I)cc2/C1=C/c1cc(Br)c(O)c(Br)c1`, for the setting “NaCl 150 mM”, the Tm shift was 10.2 Celsius.

Take `CCC(CO)Nc1ccc2ncc(-c3ccc(C(=O)O)cc3)n2n1` (configuration not stated): the Tm shift (NaCl 150 mM) is 4.94 Celsius.

Regarding `CC(C)[C@@H](CO)Nc1ccc2ncc(-c3cccc(Cl)c3)n2n1`, the Tm shift (NaCl 150 mM) is 4.69 Celsius.

On to `Cc1c(O)cc(O)c2c1OC(c1ccc(O)c(O)c1)C(=O)C2=O` (configuration not stated), for which, under “NaCl 150 mM”, the Tm shift is 4.1 Celsius.

Take `O=c1cc(-c2ccc(O)cc2)oc2cc(O)cc(O)c12`: the Tm shift (NaCl 150 mM) was 3.8 Celsius.

As to `Clc1cccc(Nc2ccn3ncc(-c4ccsc4)c3n2)c1`, the Tm shift (NaCl 100 mM) is 3.45 Celsius.

As for `CC(=O)c1cccc(-c2cnc3ccc(N[C@H](CO)C(C)C)nn23)c1`, the Tm shift (NaCl 150 mM) is 3.77 Celsius.
